# Data from US7173021B2, “Synthesis of temozolomide esters as potent anticancer pro-drugs for topical and transdermal applications in treatments of cancers” (Tianjin North Pharm Sci-Tech Co., Ltd., priority 2004, dated 2007).
# Legend:
# B16 (mouse melanoma) = experiment: In vitro tumour cell growth inhibition (MTT), B16; assay type: cell-based; conditions: Table 2 experiment, 96 h
# Experimental: (§1) Temozolomide (white powder), temozolomide acid (white powder) and temozolomide-8-carboxylate hexyl (white scale crystal) were made in house. For the estimation of in vitro tumour cell growth inhibition, MV3 (human melanoma), M14 (human melanoma), B16 and B16-BL6 (mouse melanoma), SHG-44, TJ899 and TJ905 (human glioma), MCF-7 (human breast), HCT-8 (human colon), A549 (human non small lung), Bel7402 (human hepatocellulor), and BGC-823 (human stomach) were used. All tumour cells were cultured in RPMI-1640 medium supplemented with 10% fetal bovine serum (FBS) at 37° C. in a humidified 5% CO2 incubator.
# (§2) After being harvested from culture flasks, a cell suspension of 1×10^4/ml was made by using 1640 RPMI medium supplemented with 10% fetal bovine serum. 100 μl (contains 1000 tumour cells) of the cell suspension was seeded per well of 96-well flat-bottom Costar culture plates at 37° C. in a humidified 5% CO2 incubator for 24 hrs before introducing drugs. Each tested compounds was made for five different concentrations and 100 μl of the each concentration was introduced into parallel three wells; control wells were added with 100 μl of plain medium alone; fluorouracil (a chemotherapeutic antitumour drug) was used as the positive control. Cells were then incubated for 96 h. Proliferative response and cell death were determined using MTT (3-(4,5-dimethylthiazolyl)-2,5-diphenyl-tetrazolium bromide) assay.
# (§3) MTT assay: Following incubation of cells with the tested compounds for 96 h, 100 μl of 0.4 mg/ml MTT in RPMI 1640 was added to each well and the plate was incubated at 37° C. for 4 h. The plate was then centrifuged and followed by removal of medium. 150 μl of DMSO was then added to dissolve formazan crystal. DMSO-added plates were placed on a plate shaker for 5 min and absorbance was measured spectrophotometrically at 540 nm (with reference wavelength at 450 nm) using a Benchmark microtiter plate reader (Bio-Rad 550, Bio-Rad Laboratories, CA, U.S.A.).
# (§4) The IC50 was calculated from the curve of the tested compound concentrations against the inhibition rate of the tumour cells. Table 1 summarized the experiment results by using six human cancer cell lines, HCT-8 (colon carcinoma), A549 (non small lung carcinoma), MCF-7 (breast), Bel7402 (hepatocellulor carcinoma), BGC-823 (stomach adenocarcinoma), and MV3 (melanoma). Table 2 summarized the results from the experiment results by using two human melanoma cell lines, MV3 and M14, two mouse melanoma cell lines, B16 and B16-BL6, and three human glioma cell lines, TJ899, SHG-44 and TJ905.
# SHG-44 (human glioma) = experiment: In vitro tumour cell growth inhibition (MTT), SHG-44; assay type: cell-based; conditions: 96 h
# Experimental: as §1, §2, §3, §4
# B16-BL6 (mouse melanoma) = experiment: In vitro tumour cell growth inhibition (MTT), B16-BL6; assay type: cell-based; conditions: 96 h
# Experimental: as §1, §2, §3, §4
# M14 (human melanoma) = experiment: In vitro tumour cell growth inhibition (MTT), M14; assay type: cell-based; conditions: Table 2 experiment, 96 h
# Experimental: as §1, §2, §3, §4
# MV3 (human melanoma) = experiment: In vitro tumour cell growth inhibition (MTT), MV3; assay type: cell-based; conditions: 96 h; for IC50: Homo sapiens
# Experimental: as §1, §2, §3, §4
# TJ905 (human glioma) = experiment: In vitro tumour cell growth inhibition (MTT), TJ905; assay type: cell-based; conditions: Table 2 experiment, 96 h
# Experimental: as §1, §2, §3, §4
# TJ899 (human glioma) = experiment: In vitro tumour cell growth inhibition (MTT), TJ899; assay type: cell-based; conditions: Table 2 experiment, 96 h
# Experimental: as §1, §2, §3, §4
# HCT-8 (human colon) = experiment: In vitro tumour cell growth inhibition (MTT), HCT-8; assay type: cell-based; conditions: Table 1 experiment, 96 h
# Experimental: as §1, §2, §3
# (§5) The IC50 was calculated from the curve of the tested compound concentrations against the inhibition rate of the tumour cells. […]
# MCF-7 (human breast) = experiment: In vitro tumour cell growth inhibition (MTT), MCF-7; assay type: cell-based; conditions: MCF7, Table 1 experiment, 96 h
# Experimental: as §1, §2, §3, §5
# [1] = test system: Bel7402 (human hepatocellulor); experiment: In vitro tumour cell growth inhibition (MTT), Bel-7402; assay type: cell-based; conditions: Table 1 experiment, 96 h
# Experimental: as §1, §2, §3, §5
# [2] = test system: A549 (human non small lung); experiment: In vitro tumour cell growth inhibition (MTT), A549; assay type: cell-based; conditions: Table 1 experiment, 96 h
# Experimental: as §1, §2, §3, §5
# BGC-823 (human stomach) = experiment: In vitro tumour cell growth inhibition (MTT), BGC-823; assay type: cell-based; conditions: Table 1 experiment, 96 h
# Experimental: as §1, §2, §3, §5
# [3] = Solubility in 10% v/v propylene glycol; assay type: physicochemical; conditions: ambient conditions, stirred 5 hours; for solubility at 5 h: 10% v/v propylene glycol aqueous solution, aqueous with cosolvent or surfactant or cyclodextrin, thermodynamic from solid, read-out: Solubility, Concentration
# Experimental: The potential of temozolomide esters used as topical and transdermal prodrugs is first proven through studies of their solubility. That is a decreased trend of solubility in an aqueous solution with increase of the length of the ester hydrocarbon alkyl chain of the temozolomide esters. It is clear the solubility constantly decreases from the methyl ester to the octyl ester, while temozolomide itself is 3.0 mg/ml similar to that of the methyl ester. […] Similarly to the esters, the solubility of the temozolomide amide products in the aqueous solution is considerably lower than that of temozolomide.
# The solubility of temozolomide and the temozolomide esters was determined in 10% v/v propylene glycol by stirring an excess of the solid products at room temperature for 5 hours. The mixtures were then filtered, diluted with sample solvent and analysed using HPLC.
# [4] = In vitro permeation, Franz diffusion cell, silicone membrane; assay type: in vitro ADME; conditions: 37° C., 8 h
# Excerpt: Jacketed Franz-type diffusion cells were used throughout the study and the barrier (12) (skin or silicone membrane) was mounted between the two chambers (14, 16) (2.8–3.4 cm^2 available surface area) with the dermal side in contact with the receiver solution (FIG. 2). The diffusion chambers (10) comprised a barrier of skin or silicone membrane (12) mounted between two chambers (14, 16). A cap (18) formed the donor compartment (14). The second receptor compartment (16) contained a receptor cell (20) with a stirring bar (22), sampling port (24) and cover (26). The stirring bar (22) was stirred by means of a magnet plate (28) having a rotating magnet. The receptor compartment comprised a water jacket (30) having a water inlet (32) and a water outlet (34).
# Three types of materials were used in permeation studies. • 1. Silicone membrane (Silastic Medical Grade, 500-5, Dow Corning 0.005 in thick) was cut into circular sections (2 cm diameter) and washed with double distilled water prior to use. • 2. Full-thickness rat skin was obtained from Male Wistar rats aged 10 to 12 weeks and weighing 250 to 300 g, which were sacrificed by cervical dislocation, the abdomen shaved and the intact skin removed by dissection. Following removal of fat tissue, the skin was cut into circular pieces and used immediately. • 3. Samples of adult human epidermis were purchased from the Stephen Kirby Skin Bank (UK). The samples were from the leg, were stored at −18° C. and used within one week. Experiments
# The membrane (as detailed above) was mounted on the diffusion cell (10), on which the surface area available for diffusion of each cell was about 2.8–3.4 cm^2. The cell cap (18) was placed on the membrane (12), and it was sealed with Parafilm® connecting the cell cap, membrane, and receptor cell. The capacity of each receptor cell was around 25–26 ml, which was filled with receptor solution and was completely in contact with the membrane sheet. During the course of experiment, the solution was continuously stirred by teflon-coated magnetic bar (22) placed in the cell (20). The temperature was maintained at 37° C. by a thermostatic water pump that circulated the water through the jacket (30) surrounding the cell body. The system was allowed to equilibrate under these conditions for half an hour. Finally, the prepared sample solution (2 ml) was added into the donor cap cell, and it was sealed with Parafilm® to minimize the evaporation of donor solution. 1 ml of receptor solution was removed every 30 minutes for 5 hours and then every 60 minutes for a further 3 hours. The volumes withdrawn were always replaced with equal volumes of fresh receptor solution to maintain constant volume. The concentration of each sample solution was determined by using HPLC.
# For every sample, six determinations were performed on human and rat skin, and three determinations were carried out through artificial silicone membrane.
# As stated above, after the removal of receptor solution, the receiver compartment was refilled with an identical volume of receptor fluid. This causes of the dilution of receptor solution leading to an under determination of the sample concentration. As a consequence, it was necessary to mathematically correct each successive sample concentrations, in the present invention, which was determined by applying the following equation:
# [formula] where Ct is the actual current concentration of drug in the receptor phase at time t, Cmt is the apparent (i.e. measured) current concentration of drug in the receptor phase, Vs is the sample volume withdrawn for analysis, Vr is the volume of receptor solution, and ΣCm is the summed total of the previous measured concentrations.
# Finally, the amount of drug penetrating the skin per unit area was calculated by dividing the obtained concentrations by the surface area available for diffusion cell and this value was different for each individual cell. […]
# pig liver esterase = experiment: Enzymatic metabolizing study with pig liver esterase (1H NMR); assay type: in vitro ADME; conditions: 37° C., pH 7.4 buffer; ester complete at 10 minutes; amide followed up to 8 hours
# Experimental: First the present invention establishes the metabolised process of the temozolomide esters by pig liver esterase in vitro. ^1H NMR spectra 1 (FIG. 1) records the degradation profile of the temozolomide methyl ester under incubation condition (Rathbone D L, 1999). […] Finally, at 10 minutes, the intensity of the singlet at 3.58 ppm grows to the grade similar to the original of the two singlets at 3.63 and 3.65 ppm, which while are completely eliminated. […] This discovery establishes the solid foundation for the temozolomide esters to be considered as the potential anticancer pro-drugs.
# Enzymatic metabolizing studies of the temozolomide methyl ester was carried out using pig liver esterase enzyme from Sigma [a suspension in 3.2 M ammonium sulphate solution pH 8; 200 unit/mg protein (14 mg protein/ml)]. • A. To a NMR tube 2 mg of the temozolomide methyl ester was added, followed by 0.2 ml of d6-DMSO, 0.5 ml D2O of pH 7.4 sulphate buffer and finally 50 μl of the enzyme solution. Record a ^1H NMR spectrum immediately, then the mixture was incubated at 37° C. and record a ^1H NMR spectrum at each 5 minutes time interval. […] The samples were dissolved in d6-DMSO in an NMR tube, 50 μl of enzyme solution was added and the solution incubated at 37° C.
smiles,measurement,setting,value
O=NN(CCCl)C(=O)NCCCl [Carmustine],IC50,B16 (mouse melanoma); Mus musculus,7.75 µg/mL
same,IC50,"SHG-44 (human glioma); Homo sapiens, SHG-44, Table 2 experiment",7.2 µg/mL
same,IC50,"B16-BL6 (mouse melanoma); Mus musculus, B16-BL6, Table 2 experiment",13.1 µg/mL
same,IC50,M14 (human melanoma); Homo sapiens,28.7 µg/mL
same,IC50,MV3 (human melanoma); Table 2 experiment (separate),6.35 µg/mL
same,IC50,TJ905 (human glioma); Homo sapiens,67.3 µg/mL
same,IC50,TJ899 (human glioma); Homo sapiens,54.2 µg/mL
CN(C)/N=N/c1[nH]cnc1C(N)=O [Darcabazine],IC50 B16,B16 (mouse melanoma),10.000 µg/mL
same,IC50 SHG-44,SHG-44 (human glioma); Table 2 experiment,1.261 µg/mL
same,IC50 B16-BL6,B16-BL6 (mouse melanoma); Table 2 experiment,61.765 µg/mL
same,IC50 M14,M14 (human melanoma),0.558 µg/mL
same,IC50 MV3,MV3 (human melanoma); Table 2 experiment (separate),0.647 µg/mL
same,IC50 TJ905,TJ905 (human glioma),6.860 µg/mL
same,IC50 TJ899,TJ899 (human glioma),5.600 µg/mL
"O=c1[nH]cc(F)c(=O)[nH]1 [Fluorouracil, fluorouracil, reference compound]",IC50,HCT-8 (human colon),0.606 µg/mL
same,IC50,MCF-7 (human breast),0.629 µg/mL
same,IC50,MV3 (human melanoma); Table 1 experiment,0.427 µg/mL
same,IC50,[1],0.495 µg/mL
same,IC50,[2],0.126 µg/mL
same,IC50,BGC-823 (human stomach),0.722 µg/mL
"CCOC(=O)c1ncn2c(=O)n(C)nnc12 [Temozolomide ethyl ester, Ethyl 3,4-dihydro-3-methyl-4-oxoimidazo[5,1-d]-1,2,3,5-tetrazine-8-carboxylate]",solubility at 5 h,[3],2500 µg/mL
same,Permeation through synthetic silicone membrane,[4]; FIGS. 3-5,can not pass through the synthetic membrane easily
"CC(C)NC(=O)c1ncn2c(=O)n(C)nnc12 [Temozolomide isopropyl amide, 3-Methyl-N-(iso-propyl)-4-oxoimidazo[5,1-d]-1,2,3,5-tetrazine-8-carboxamide]",solubility at 5 h,[3],2800 µg/mL
"COC(=O)c1ncn2c(=O)n(C)nnc12 [Temozolomide methyl ester, Methyl 3,4-dihydro-3-methyl-4-oxoimidazo[5,1-d]-1,2,3,5-tetrazine-8-carboxylate]",solubility at 5 h,[3],3000 µg/mL
same,Degradation to temozolomide acid by pig liver esterase,pig liver esterase,completely degraded and released temozolomide acid
same,Permeation through synthetic silicone membrane,[4]; FIGS. 3-5,can not pass through the synthetic membrane easily
"CCCCOC(=O)c1ncn2c(=O)n(C)nnc12 [Temozolomide n-butyl ester, n-Butyl 3,4-dihydro-3-methyl-4-oxoimidazo[5,1-d]-1,2,3,5-tetrazine-8-carboxylate]",solubility at 5 h,[3],1400 µg/mL
same,Permeation through synthetic silicone membrane,[4]; FIGS. 3-5,passed through the membrane far more efficiently
"CCCCCCCCOC(=O)c1ncn2c(=O)n(C)nnc12 [Temozolomide n-octyl ester, n-Octyl 3,4-dihydro-3-methyl-4-oxoimidazo[5,1-d]-1,2,3,5-tetrazine-8-carboxylate]",solubility at 5 h,[3],300 µg/mL
same,Permeation through synthetic silicone membrane,"[4]; FIGS. 3-5, listed as n-octyl ester",passed through the membrane far more efficiently
same,Permeation through synthetic silicone membrane,"[4]; FIGS. 3-5, listed as octyl ester",significantly less than the hexyl ester
"CCCOC(=O)c1ncn2c(=O)n(C)nnc12 [Temozolomide n-propyl ester, n-Propyl 3,4-dihydro-3-methyl-4-oxoimidazo[5,1-d]-1,2,3,5-tetrazine-8-carboxylate]",solubility at 5 h,[3],2000 µg/mL
same,Permeation through synthetic silicone membrane,[4]; FIGS. 3-5,passed through the membrane far more efficiently
CCC(C)NC(=O)c1ncn2c(=O)n(C)nnc12 (centres unmarked) [Temozolomide sec-butyl amide],"Solubility, Concentration",[3],1.8 mg/mL
"Cn1nnc2c(C(=O)NC(C)(C)C)ncn2c1=O [Temozolomide t-butyl amide, 3-Methyl-N-(tert-butyl)-4-oxoimidazo[5,1-d]-1,2,3,5-tetrazine-8-carboxamide]",solubility at 5 h,[3],1400 µg/mL
